Experimental data reported in PubChem BioAssay (NCI).
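1) Cells in 96-well plates. 2) Compound, 48 h, 5 concentrations. 3) Linear interpolation between surrounding doses. 4) Unreached endpoint = highest concentration. TGI is the concentration that stops growth completely.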

Assays:
Assay in all cases: NCI tumour cell line growth inhibition, 48 h
[1] = tested on: DLD-1 colon
[2] = tested on: SNB-78 CNS
[3] = tested on: HL-60(TB) leukemia
[4] = tested on: HOP-18 NSCLC
[5] = tested on: LXFL 529 NSCLC
[6] = tested on: XF 498 CNS
[7] = tested on: KM20L2 colon
[8] = tested on: CCRF-CEM leukemia
[9] = tested on: DMS 114 small cell lung
[10] = tested on: M19-MEL melanoma
[11] = tested on: SF-539 CNS
[12] = tested on: DMS 273 small cell lung
[13] = tested on: RXF-631 renal

| Compound | TGI [1] | TGI [2] | TGI [3] | TGI [4] | TGI [5] | TGI [6] | TGI [7] | TGI [8] | TGI [9] | TGI [10] | TGI [11] | TGI [12] | TGI [13] |
| --- | --- | --- | --- | --- | --- | --- | --- | --- | --- | --- | --- | --- | --- |
| CC1(C)OCN(c2ccc(S(N)(=O)=O)cc2)Cn2c1nc1ccccc12 | > 100 µM | > 100 µM | > 100 µM | > 100 µM | > 100 µM | > 100 µM | > 100 µM | > 100 µM | > 100 µM | > 100 µM | > 100 µM | > 100 µM | – |
| C/C(=N\NC(=S)NC(CCC(=O)O)C(=O)O)c1cnccn1 (configuration not stated) | > 100 µM | > 100 µM | > 100 µM | > 100 µM | > 100 µM | > 100 µM | > 100 µM | > 100 µM | > 100 µM | > 100 µM | > 100 µM | – | > 100 µM |
| CCOc1ccc(/C=C(\Cl)c2ccc(OC)cc2)cc1 | > 100 µM | > 100 µM | > 100 µM | > 100 µM | > 100 µM | > 100 µM | > 100 µM | > 100 µM | > 100 µM | > 100 µM | > 100 µM | > 100 µM | – |
| COc1ccccc1-n1c(NN)nc2ccc(Br)cc2c1=O | > 100 µM | > 100 µM | 53.1 µM | 61.5 µM | > 100 µM | 92.1 µM | > 100 µM | > 100 µM | > 100 µM | > 100 µM | 84.5 µM | > 100 µM | > 100 µM |
| C[C@@H]1O[C@]2(O)[C@@H]3CCCN3S(=O)(=O)CCN2C1=O | > 100 µM | > 100 µM | > 100 µM | > 100 µM | > 100 µM | > 100 µM | > 100 µM | > 100 µM | – | > 100 µM | > 100 µM | – | > 100 µM |
| CCOC(=O)CCC(NC(=O)c1ccc(N=Cc2nc3ccccc3nc2-c2ccccc2)cc1)C(=O)OCC (configuration not stated) | > 100 µM | > 100 µM | > 100 µM | > 100 µM | > 100 µM | > 100 µM | > 100 µM | > 100 µM | > 100 µM | – | > 100 µM | > 100 µM | > 100 µM |
